Converted amounts (≈) assume the structure as drawn. Where two headings read alike, the source gives them in different places.
Legend:
Type in all cases: cell-based
[1] = test system: 100 A. baumannii strains (50 MDR, 50 non-MDR); assay: MIC broth microdilution at IHMA Europe, panel of 100 strains; conditions: for MIC / MIC50 / MIC90: Acinetobacter baumannii; for MIC50: read-out: MIC 50; for MIC90: read-out: MIC 90
[2] = test system: A. baumannii ATCC 17978; assay: IHMA QC MIC
Procedure: (§1) The panel of Hungarian clinical isolates and controls measured following the same method as detailed above, and albeit measurements were carried out in 384-well microtiter plates (Corning Inc.).

[3] = test system: E. coli ATCC 35218; assay: IHMA QC MIC; conditions: Escherichia coli, ATCC35218; read-out: MIC (QC, repeated tests)
Procedure: as §1

[4] = test system: E. coli ATCC 25922; assay: IHMA QC MIC; conditions: Escherichia coli, ATCC25922; read-out: MIC (QC, repeated tests)

CN(C)c1cc(NC(=O)CNC(C)(C)C)c(O)c2c1C[C@H]1C[C@H]3[C@H](N(C)C)C(O)=C(C(N)=O)C(=O)[C@@]3(O)C(O)=C1C2=O [Tigecycline, tigecycline]
MIC ([1]; A. baumannii IHMA 2156634, Turkey 2020, MDR, read-out: MIC): 4 µg/mL (≈ 6.83 µM)
MIC ([1]; A. baumannii IHMA 2156709, Turkey 2020, MDR, read-out: MIC): 4 µg/mL (≈ 6.83 µM)
MIC ([1]; A. baumannii IHMA 2157614, Australia 2020, Non-MDR, read-out: MIC): 0.25 µg/mL (≈ 0.427 µM)
MIC ([1]; A. baumannii IHMA 2177232, Lithuania 2020, MDR, read-out: MIC): 8 µg/mL (≈ 13.7 µM)
MIC ([1]; A. baumannii IHMA 2177489, Lithuania 2020, MDR, read-out: MIC): 4 µg/mL (≈ 6.83 µM)
MIC ([1]; A. baumannii IHMA 2178574, Ukraine 2020, Non-MDR, read-out: MIC): 0.25 µg/mL (≈ 0.427 µM)
MIC ([1]; A. baumannii IHMA 2180134, Malaysia 2020, Non-MDR, read-out: MIC): 0.25 µg/mL (≈ 0.427 µM)
MIC ([1]; A. baumannii IHMA 2180142, Malaysia 2020, MDR, read-out: MIC): 2 µg/mL (≈ 3.41 µM)
MIC ([1]; A. baumannii IHMA 2181370, Morocco 2020, MDR, read-out: MIC): 1 µg/mL (≈ 1.71 µM)
MIC ([1]; A. baumannii IHMA 2183729, Argentina 2020, MDR, read-out: MIC): 1 µg/mL (≈ 1.71 µM)
MIC ([1]; A. baumannii IHMA 2183849, Argentina 2020, Non-MDR, read-out: MIC): 0.25 µg/mL (≈ 0.427 µM)
MIC ([1]; A. baumannii IHMA 2184382, Japan 2020, Non-MDR, read-out: MIC): 0.12 µg/mL (≈ 0.205 µM)
MIC ([1]; A. baumannii IHMA 2193375, Venezuela 2020, MDR, read-out: MIC): 1 µg/mL (≈ 1.71 µM)
MIC ([1]; A. baumannii IHMA 2193485, Venezuela 2020, Non-MDR, read-out: MIC): 0.12 µg/mL (≈ 0.205 µM)
MIC ([1]; A. baumannii IHMA 2193607, Venezuela 2020, MDR, read-out: MIC): 0.5 µg/mL (≈ 0.854 µM)
MIC ([1]; A. baumannii IHMA 2195460, Italy 2020, MDR, read-out: MIC): 1 µg/mL (≈ 1.71 µM)
MIC ([1]; A. baumannii IHMA 2196914, South Africa 2020, MDR, read-out: MIC): 4 µg/mL (≈ 6.83 µM)
MIC ([1]; A. baumannii IHMA 2196959, South Africa 2020, MDR, read-out: MIC): 2 µg/mL (≈ 3.41 µM)
MIC ([1]; A. baumannii IHMA 2203763, Spain 2020, MDR, read-out: MIC): 2 µg/mL (≈ 3.41 µM)
MIC ([1]; A. baumannii IHMA 2205144, Korea, South 2020, MDR, read-out: MIC): 2 µg/mL (≈ 3.41 µM)
MIC ([1]; A. baumannii IHMA 2206459, Taiwan 2020, MDR, read-out: MIC): 2 µg/mL (≈ 3.41 µM)
MIC ([1]; A. baumannii IHMA 2206507, Taiwan 2020, Non-MDR, read-out: MIC): 0.12 µg/mL (≈ 0.205 µM)
MIC ([1]; A. baumannii IHMA 2212575, Hungary 2020, Non-MDR, read-out: MIC): 0.5 µg/mL (≈ 0.854 µM)
MIC ([1]; A. baumannii IHMA 2215307, Hong Kong 2020, Non-MDR, read-out: MIC): 0.25 µg/mL (≈ 0.427 µM)
MIC ([1]; A. baumannii IHMA 2216586, Taiwan 2020, MDR, read-out: MIC): 2 µg/mL (≈ 3.41 µM)
MIC ([1]; A. baumannii IHMA 2223200, Colombia 2020, Non-MDR, read-out: MIC): 0.25 µg/mL (≈ 0.427 µM)
MIC ([1]; A. baumannii IHMA 2224017, Panama 2020, MDR, read-out: MIC): 2 µg/mL (≈ 3.41 µM)
MIC ([1]; A. baumannii IHMA 2224303, Panama 2020, Non-MDR, read-out: MIC): 0.5 µg/mL (≈ 0.854 µM)
MIC ([1]; A. baumannii IHMA 2231797, Greece 2020, MDR, read-out: MIC): 4 µg/mL (≈ 6.83 µM)
MIC ([1]; A. baumannii IHMA 2233099, Guatemala 2020, MDR, read-out: MIC): 2 µg/mL (≈ 3.41 µM)
MIC ([1]; A. baumannii IHMA 2233430, Kazakhstan 2020, MDR, read-out: MIC): 4 µg/mL (≈ 6.83 µM)
MIC ([1]; A. baumannii IHMA 2233548, Kazakhstan 2020, Non-MDR, read-out: MIC): 0.12 µg/mL (≈ 0.205 µM)
MIC ([1]; A. baumannii IHMA 2238964, Thailand 2020, MDR, read-out: MIC): 1 µg/mL (≈ 1.71 µM)
MIC ([1]; A. baumannii IHMA 2239052, Thailand 2020, Non-MDR, read-out: MIC): 0.12 µg/mL (≈ 0.205 µM)
MIC ([1]; A. baumannii IHMA 2261047, Belgium 2020, MDR, read-out: MIC): 1 µg/mL (≈ 1.71 µM)
MIC ([1]; A. baumannii IHMA 2261633, Canada 2020, Non-MDR, read-out: MIC): 0.25 µg/mL (≈ 0.427 µM)
MIC ([1]; A. baumannii IHMA 2274234, South Africa 2020, MDR, read-out: MIC): 2 µg/mL (≈ 3.41 µM)
MIC ([1]; A. baumannii IHMA 2274364, South Africa 2020, MDR, read-out: MIC): 4 µg/mL (≈ 6.83 µM)
MIC ([1]; A. baumannii IHMA 2275237, Chile 2020, Non-MDR, read-out: MIC): 0.12 µg/mL (≈ 0.205 µM)
MIC ([1]; A. baumannii IHMA 2275751, Jordan 2020, MDR, read-out: MIC): 2 µg/mL (≈ 3.41 µM)
MIC ([1]; A. baumannii IHMA 2316205, United States 2020, MDR, read-out: MIC): 4 µg/mL (≈ 6.83 µM)
MIC ([1]; MDR n = 50, read-out: MAX (maximum MIC; all strains inhibited)): 8 µg/mL (≈ 13.7 µM)
MIC50 ([1]; MDR n = 50): 2 µg/mL (≈ 3.41 µM)
MIC90 ([1]; MDR n = 50): 4 µg/mL (≈ 6.83 µM)
MIC ([1]; MDR n = 50, read-out: MIN (minimum MIC)): 0.5 µg/mL (≈ 0.854 µM)
MIC ([1]; all isolates n = 100, read-out: MAX (maximum MIC; all strains inhibited)): 8 µg/mL (≈ 13.7 µM)
MIC50 ([1]; all isolates n = 100): 0.5 µg/mL (≈ 0.854 µM)
MIC90 ([1]; all isolates n = 100): 4 µg/mL (≈ 6.83 µM)
MIC ([1]; all isolates n = 100, read-out: MIN (minimum MIC)): 0.06 µg/mL (≈ 0.102 µM)
MIC ([1]; non-MDR n = 50, read-out: MAX (maximum MIC)): 4 µg/mL (≈ 6.83 µM)
MIC50 ([1]; non-MDR n = 50): 0.25 µg/mL (≈ 0.427 µM)
MIC90 ([1]; non-MDR n = 50): 0.5 µg/mL (≈ 0.854 µM)
MIC ([1]; non-MDR n = 50, read-out: MIN (minimum MIC)): 0.06 µg/mL (≈ 0.102 µM)
MAX (maximum MIC; all strains inhibited) ([1]; MDR n = 50): 8 µg/mL
MAX (maximum MIC; all strains inhibited) ([1]; all isolates n = 100): 8 µg/mL
MIC (QC, repeated tests) [2]: 0.5 µg/mL (≈ 0.854 µM)
MIC ([2]; Acinetobacter baumannii, ATCC17978, read-out: MIC (QC, repeated tests)): 0.25 µg/mL (≈ 0.427 µM)
MIC [3]: 0.12 µg/mL (≈ 0.205 µM)
MIC [4]: 0.12 µg/mL (≈ 0.205 µM)

From PMC10041525, “New Dual Inhibitors of Bacterial Topoisomerases with Broad-Spectrum Antibacterial Activity and In Vivo Efficacy against Vancomycin-Intermediate Staphylococcus aureus” (Journal of Medicinal Chemistry, 2023)
